Reference: EP0327744A1, “Oxytocin and vasopressin antagonists” (Merck & Co., Inc., priority 1988, dated 1989)
Where two headings read alike, the source gives them in different places. Numbered stars: 1 amine (or outer) side, 2 acyl side, 3 side chain; on linkers, the order of the positions; unused ones are H or OH. Square brackets hold non-standard residues; d marks the D form. Peptide text beside a SMILES is read from it. ξ: configuration not given here. ξN(OH)Ile(3ξ) = CCC(C)C(NO)C(=O)O; NMeF = CN[CH](Cc1ccccc1)C(=O)O; X1 = O=C(C1CCCNN1[*:1])[*:2]

How the values were obtained:
[1] = molecular target: T1, V₁(pressor)-receptor (Rattus norvegicus, UniProt P30560); experiment: [³H]Arginine Vasopressin Binding Assay, liver membranes (V₁)
T1 construct: crude membrane preparation of rat liver (V₁ receptor); from tissue; host or cells: rat liver, crude membrane preparation
From the text: (§1) The table summarizes the in vitro potencies of the various components to compete for ³H-vasopressin binding at two proposed vasopressin receptor subtypes (V₁, V₂), as well as to inhibit vasopressin-stimulated adenylate cyclase activity, a further measure of vasopressin antagonism.
(§2) The [³H]Arginine Vasopressin Binding Assay is an in vitro procedure which was adapted from the method of Guillon et al., Eur. J. Pharmacol. 85: […] (1982). It measures the relative affinity of the various test compounds for vasopressin receptor(s) labelled by [³H]vasopressin. Vasopressin receptors have been divided into two subtypes pharmacologically: the V₁(pressor)-receptor found in liver and vascular smooth muscle and the V₂(antidiuretic)-receptor found in kidney medulla. The binding assay uses a crude membrane preparation of rat liver (V₁ receptor) or kidney medulla (V₂ receptor) which is incubated with [³H]vasopressin in the presence or absence of the test compound. The IC₅₀ values (concentrations to inhibit [³H]vasopressin binding by 50%) for the various compounds (see Table III) are measures of their potencies and are inversely related to their affinities.

[2] = molecular target: T2, Vasopressin-stimulated adenylate cyclase in kidney medulla (V₂) (Rattus norvegicus, UniProt Q00788); experiment: Vasopressin-stimulated adenylate cyclase functional assay in kidney medulla (V₂ antagonism); assay type: biochemical
T2 construct: Vasopressin-stimulated adenylate cyclase in kidney medulla, therefore, is used as a functional assay; from tissue
From the text: as §1
Vasopressin exerts its antidiuretic effects on the kidney through the stimulation of adenylate cyclase activity. Vasopressin-stimulated adenylate cyclase in kidney medulla, therefore, is used as a functional assay to determine the potencies of the various test compounds as V₂-vasopressin antagonists. In this assay, the IC₅₀ values obtained for the various compounds (see Table III) are measures of their potencies to inhibit the vasopressin-stimulated conversion of ATP to cAMP by adenylate cyclase. This method was adapted from Seamon et al., PNAS 78: 3363-3367 (1981).

[3] = molecular target: T3, V₂(antidiuretic)-receptor (Rattus norvegicus, UniProt Q00788); experiment: [³H]Arginine Vasopressin Binding Assay, kidney medulla membranes (V₂)
T3 construct: crude membrane preparation of rat liver (V₁ receptor) or kidney medulla (V₂ receptor); from tissue; host or cells: rat kidney medulla, crude membrane preparation
From the text: as §1, §2

[4] = molecular target: T4, oxytocin receptor (Rattus norvegicus, UniProt P70536); experiment: [³H]Oxytocin Binding Assay (crude membrane preparation of rat uterus); details: inhibition of [³H]oxytocin binding, rat uterus membranes; read-out: IC₅₀ (nM) [³H]OT (uterus)
T4 construct: crude membrane preparation of rat uterus as the source of oxytocin receptors; from tissue; host or cells: rat uterus, crude membrane preparation
T4 sequence (P70536 1-388): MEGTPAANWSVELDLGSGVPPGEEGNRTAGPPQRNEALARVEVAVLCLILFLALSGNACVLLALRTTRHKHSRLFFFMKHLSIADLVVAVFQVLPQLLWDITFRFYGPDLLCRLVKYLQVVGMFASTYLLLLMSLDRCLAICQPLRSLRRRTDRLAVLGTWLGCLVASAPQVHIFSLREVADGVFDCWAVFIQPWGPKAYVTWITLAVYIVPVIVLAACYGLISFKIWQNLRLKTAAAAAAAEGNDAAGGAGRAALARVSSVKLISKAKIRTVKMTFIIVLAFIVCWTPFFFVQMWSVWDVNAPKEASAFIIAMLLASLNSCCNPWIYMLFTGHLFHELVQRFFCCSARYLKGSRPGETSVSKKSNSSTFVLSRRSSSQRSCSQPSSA
From the text: Oxytocin receptors have been identified in mammalian uterine tissue through the use of in vitro radioligand binding assays. These receptor binding sites mediate the contractile response of the uterine myometrium to oxytocin. […] The assay uses a crude membrane preparation of rat uterus as the source of oxytocin receptors. […]

[5] = IC₅₀ Values ³H-Arg⁸-Vasopressin Binding Liver (V₁), rat liver membranes, mean ± standard error
[6] = IC₅₀ Values ³H-Arg⁸-Vasopressin Binding Kidney (V₂), rat kidney medulla membranes, mean ± standard error

T1 sequence (P30560 whole entry): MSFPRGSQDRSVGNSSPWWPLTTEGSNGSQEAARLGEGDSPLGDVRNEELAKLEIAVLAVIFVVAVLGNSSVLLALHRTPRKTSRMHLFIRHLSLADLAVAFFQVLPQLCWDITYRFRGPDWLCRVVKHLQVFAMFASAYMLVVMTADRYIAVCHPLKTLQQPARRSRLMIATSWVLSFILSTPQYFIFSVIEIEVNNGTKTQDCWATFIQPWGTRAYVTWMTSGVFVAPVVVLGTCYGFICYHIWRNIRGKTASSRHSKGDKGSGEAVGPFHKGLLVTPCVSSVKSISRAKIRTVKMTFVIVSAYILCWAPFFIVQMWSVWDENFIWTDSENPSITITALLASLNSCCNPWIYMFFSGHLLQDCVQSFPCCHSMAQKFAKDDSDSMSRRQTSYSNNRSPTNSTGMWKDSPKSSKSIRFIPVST
T3 sequence (Q00788 whole entry): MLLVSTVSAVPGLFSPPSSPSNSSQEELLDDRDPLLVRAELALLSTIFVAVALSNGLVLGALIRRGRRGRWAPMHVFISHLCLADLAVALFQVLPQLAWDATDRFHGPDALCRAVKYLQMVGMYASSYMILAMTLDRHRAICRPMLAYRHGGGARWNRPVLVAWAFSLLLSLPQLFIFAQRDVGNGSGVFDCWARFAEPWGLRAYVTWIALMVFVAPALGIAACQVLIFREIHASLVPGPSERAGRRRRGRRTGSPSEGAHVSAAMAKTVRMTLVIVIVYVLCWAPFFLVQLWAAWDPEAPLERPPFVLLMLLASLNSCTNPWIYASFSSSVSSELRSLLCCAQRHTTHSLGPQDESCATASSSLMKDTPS
T2 sequence (Q00788 whole entry): as above

**Q.** `CC(C)C1C(=O)N2NCCCC2C(=O)N2NCCCC2C(=O)N(C)C(Cc2ccccc2)C(=O)N2CCCC2C(=O)NC(Cc2ccccc2)C(=O)N1O` (centres unmarked) [Component A] was tested. Which IC50 [1, 5] did it give?
**A.** 6.8 µM

**Q.** What about the IC50 [2] of the same compound?
**A.** 19 µM

**Q.** And the IC50 [3, 6]?
**A.** 7.9 µM

**Q.** Which IC50 [4] does the source give for `CCC(C)C1NC(=O)C(Cc2ccccc2)NC(=O)C2CCCN2C(=O)C(Cc2ccccc2)N(C)C(=O)C2CCCNN2C(=O)C2CCCNN2C1=O` (centres unmarked) [Example 9] (cyclo([X1][X1][NMeF]PFI); configuration not given here) here?
**A.** 170 ± 15 nM

**Q.** How did the IC50 [1] turn out when `CCC(C)C1C(=O)N2NCCCC2C(=O)N2NCCCC2C(=O)N(C)C(Cc2ccccc2)C(=O)N2CCCC2C(=O)NC(Cc2ccccc2)C(=O)N1O` (centres unmarked) [Formula I] (cyclo([ξN(OH)Ile(3ξ)][X1][X1][NMeF]PF); configuration not given here) was run?
**A.** 11.7 ± 1.7 µM

**Q.** And the IC50 [4]?
**A.** 370 ± 70 nM

**Q.** And the IC50 [2]?
**A.** 10.2 ± 1.1 µM

**Q.** What about the IC50 [3] of the same compound?
**A.** 9.8 ± 1.7 µM

**Q.** How did the IC50 ([1]; IC₅₀ Values ³H-Arg⁸-Vasopressin Binding Liver (V₁), rat liver membranes, molar IC₅₀ in brackets, based on MW of 700) turn out when `CC(C)CC1C(=O)N2NCCCC2C(=O)N2NCCCC2C(=O)N(C)C(Cc2ccccc2)C(=O)N2CCCC2C(=O)NC(Cc2ccccc2)C(=O)N1O` (centres unmarked) [Component C] was run?
**A.** 6 µM

**Q.** What about the IC50 ([1]; IC₅₀ Values ³H-Arg⁸-Vasopressin Binding Liver (V₁), rat liver membranes, value in µg/ml (exact MW not known)) of the same compound?
**A.** 5.53 µM

**Q.** What about the IC50 ([2]; read-out: IC₅₀ Values AVP-stimulated Ad. Cyclase Kidney (V₂), kidney medulla, molar IC₅₀ in brackets, based on MW of 700) of the same compound?
**A.** 13 µM

**Q.** And the IC50 ([2]; read-out: IC₅₀ Values AVP-stimulated Ad. Cyclase Kidney (V₂), kidney medulla, value in µg/ml (exact MW not known))?
**A.** 12.1 µM

**Q.** And the IC50 ([3]; IC₅₀ Values ³H-Arg⁸-Vasopressin Binding Kidney (V₂), rat kidney medulla membranes, molar IC₅₀ in brackets, based on MW of 700)?
**A.** 13 µM

**Q.** What about the IC50 ([3]; IC₅₀ Values ³H-Arg⁸-Vasopressin Binding Kidney (V₂), rat kidney medulla membranes, value in µg/ml (exact MW not known)) of the same compound?
**A.** 11.9 µM

**Q.** How did the IC50 ([1]; rat liver membranes, molar IC₅₀ in brackets, based on MW of 700, read-out: IC₅₀ Values ³H-Arg⁸-Vasopressin Binding Liver (V₁) (converted)) turn out when `CCC(C)C1NC(=O)C2CCCN2C(=O)C(Cc2ccccc2)N(C)C(=O)C2CCCNN2C(=O)C2CCCNN2C(=O)C(CC(C)C)N(O)C1=O` (centres unmarked) [Component D] was run?
**A.** 30 µM

**Q.** And the IC50 ([1]; rat liver membranes, value in µg/ml (exact MW not known), read-out: IC₅₀ Values ³H-Arg⁸-Vasopressin Binding Liver (V₁) (converted))?
**A.** 28.4 µM

**Q.** What about the IC50 ([2]; kidney medulla, molar IC₅₀ in brackets, based on MW of 700, read-out: IC₅₀ Values AVP-stimulated Ad. Cyclase Kidney (V₂) (converted)) of the same compound?
**A.** 20 µM

**Q.** What about the IC50 ([2]; kidney medulla, value in µg/ml (exact MW not known), read-out: IC₅₀ Values AVP-stimulated Ad. Cyclase Kidney (V₂) (converted)) of the same compound?
**A.** 19.3 µM

**Q.** What about the IC50 ([3]; rat kidney medulla membranes, molar IC₅₀ in brackets, based on MW of 700, read-out: IC₅₀ Values ³H-Arg⁸-Vasopressin Binding Kidney (V₂) (converted)) of the same compound?
**A.** 19 µM

**Q.** What about the IC50 ([3]; rat kidney medulla membranes, value in µg/ml (exact MW not known), read-out: IC₅₀ Values ³H-Arg⁸-Vasopressin Binding Kidney (V₂) (converted)) of the same compound?
**A.** 18.3 µM

**Q.** With `CC(C)CC1C(=O)N2NCCCC2C(=O)N2NCCCC2C(=O)N(C)C(Cc2ccccc2)C(=O)N2CCCC2C(=O)NC(C(C)C)C(=O)N1O` (centres unmarked) [Component B] as the compound, how does the IC50 [1, 5] read?
**A.** 67.3 ± 16.5 µM

**Q.** What about the IC50 [2] of the same compound?
**A.** 62.7 ± 4.6 µM

**Q.** What about the IC50 [3, 6] of the same compound?
**A.** 35.3 ± 6.1 µM
